The record followed here is patent publication EP0414391B1, “Aminoketone derivatives and use thereof” (MITSUI TOATSU CHEMICALS, Inc., priority 1989, dated 1991).

Data set [1] concerns flexor reflex of the right anterior tibialis. The data set can be described thus: Depressing action for the spinal reflex of cat (flexor reflex). Particulars: Felis catus, iv, read-out: Reflex inhibition, %. The data set is classed as in vivo, cats.
Protocol: Both male and female cats having a body weight of 2.5-4.0 kg were anesthetized with ether and then fixed in the supine position. In accordance with the method proposed by Shimamoto et al ["Yakurigaku Jisshu (Pharmacological Practice)", Nanzando Co., Ltd. (1960)], profound peroneal nerve-anterior peroneal nerve samples were prepared for the testing of flexor reflex. The flexor reflex of the right anterior tibialis was elicited by electrical stimulation (0.2 Hz, 1 ms, supra maximal voltage) of the central end of the ipsilateral femoral nerve. Under a static tension of 25 g, contractions of the corresponding anterior peroneal nerve were recorded on a polygraph. Assuming that the contraction force before the administration be 100%, the rate of flexor reflex inhibition was expressed in terms of percentage: [formula]
(§1) The test compounds were intravenously administered at 3 mg/kg.
Data set [2] concerns decerebrate rigidity induced by radio frequency lesions of rat brains. The data set can be described thus: Decerebrate rigidity remission action (radio frequency lesion, method of Ono et al). The data set is classed as in vivo, Wistar male rat. To be noted: iv, intravenously administered at 3 mg/kg, tension before the administration = 100%.
Description: Using the method proposed by Ono et al [H. Ono et al, Gen. Pharmacol., 18, 57 (1987)], rigidity remission action of the aminoketone derivatives of the invention for the decerebrate rigidity induced by radio frequency lesions of rat brains was investigated.
Each Wistar male rat (body weight: 300-400 g) was anesthetized with ether and then fixed on a stereotaxic apparatus. In accordance with the Pellegrino's stereo-taxic brain atlas, the electrodes of a lesion generator (manufactured by Radionics Company) were punctuated to AP: 0, L:±1.5, V:-3. […] The rigidified rat was fixed in the abdominal position and one of the hind legs was pushed 4-5 mm toward the head repeatedly once a minute. The tension of each extension reflex of the extensor of the hind limbs was recorded. Assuming that the tension before the administration be 100%, the rate of rigidity inhibition as expressed in terms of percentage: [formula]
as §1
A short description of data set [3]: Central depressant action (spontaneous behavior, revolutionary wheel). More on the design: species or system ddy Male mice. To be noted: mouse, in vivo, ip; intraperitoneal administration; dose reducing the number of wheel revolutions in 20 minutes by 50%; read-out: Central depressant action ED₅₀. The method, then:
Depressant action against spontaneous behavior using a revolutionary wheel was used as an index for central depressant action.
ddy Male mice (body weights: 25-30 g) were used. After intraperitoneal administration of each test compound, the mouse was immediately placed in a revolutionary wheel. The total number of revolutions of the wheel during a 20 minute period immediately after the placement of the mouse inside the wheel was counted.
Doses required to reduce the number of revolutions by 50%, ED₅₀ (mg/kg) were determined.

Data set [4] concerns Tonic extension of the hind limbs. Description: Antiepileptic action (pentetrazole-induced tonic extension of the hind limbs). The data set is classed as in vivo, ddy Male mice. Particulars: Mus musculus, ip, 0.5 h, read-out: Antiepileptic action ED₅₀.
Protocol: ddy Male mice (body weights: 25-30 g) were used. Test compounds were intraperitoneally administered. Thirty minutes later, pentetrazole (PTZ) was intraperitoneally administered at 170 mg/kg.
Tonic extension of the hind limbs was observed. [formula]
Effective dose for 50% of antiepileptic action, ED₅₀ (mg/kg) was calculated.
The next data set is described as follows: Acute toxicity. Particulars: mouse, in vivo, ip; intraperitoneally administered; alive or dead observed one day later; read-out: LD₅₀. How it is done: ddy Male mice (body weights: 25-30 g) were used. Each test compound was intraperitoneally administered. One day later, the mice were observed whether they were alive or dead.
50% lethal doses, LD₅₀ (mg/kg) were calculated.

For data set [5], the system named is contraction of the bladder caused by a micturition reflex. Description: Micturition reflex depression action (bladder balloon, internal pressure). The data set is classed as in vivo, Wistar male rats. Particulars: injected through the common carotid vein, urethane-anesthetized rats, Mean ± S.E., 3 rats. The text has this: Wistar male rats having a body weight of 300 g were each anesthetized s.c. with 1.5 g/kg of urethane and fixed in the supine position. The hypogastrium was next subjected to median incision so that the bladder was exposed. A short cut was formed in a top part of the bladder, through which a balloon having an internal volume of about 1 mℓ was inserted. A catheter equipped with a three-way cock was connected to the balloon. A syringe was connected to another flow passage of the three-way cock, while a transducer ("Statham P-50", trade name) was connected to the remaining flow passage to permit the measurement of the internal pressure of the bladder.
After the rat was left over for at least 30 minutes after the operation, 0.25-0.5 mℓ of distilled water was injected into the balloon by means of the syringe. Variations in the internal pressure of the bladder, which were developed at that time due to spontaneous movement of the bladder, were recorded on a polygraph ("RM-6000", trade name; manufactured by Nihon Koden K.K.) by way of the transducer.
Each test compound was dissolved in physiological saline and injected through the common carotid vein. Effects of each test compound was expressed in terms of the time required until the disappearance of a contraction of the bladder caused by a micturition reflex.

[6] abbreviates: intraperitoneally administered 30 minutes before pentetrazole (PTZ) 170 mg/kg i.p.
Where [7] appears, read: intravenously administered at 3 mg/kg, contraction force before the administration = 100%.

Counter-ions that a name gives are not always drawn. Like-named read-outs stand apart in the source and are kept apart here.

Turning to `CCC(CN1CCCC1)C(=O)c1noc2ccccc12` (centres unmarked) [Example 58, 3-{2-(1-pyrrolidinylmethyl)butyryl} -1,2-benzisoxazole hydrochloride], in data set [1], the inhibition in vivo at 3 mg/kg amounted to 45%.

In data set [2], `CC(CN1CCCCC1)C(=O)c1cc(Cc2ccccc2)no1.Cl` (centres unmarked) [Example 21, 3-Benzyl-5-(2-methyl-3-piperidinopropionyl)isoxazole hydrochloride] showed an inhibition in vivo at 3 mg/kg of 44%. The ED50 at 20 min in data set [3] was 52 mg/kg.

For `CCC(CN1CCCC1)C(=O)c1cc(-c2ccccc2)on1` (centres unmarked) [Example 52], the inhibition in vivo at 3 mg/kg in data set [2] was 61%.

Turning to `CC(CN1CCCC1)C(=O)c1cc(-c2ccccc2)no1` (centres unmarked) [Example 5], the inhibition in vivo at 3 mg/kg in data set [2] was 40%. Further, the ED50 in data set [4] (setting [6]) stood at 20 mg/kg. In addition, in data set [3], the ED50 at 20 min is 44 mg/kg. Besides, the LD50 at 24 h in “Acute toxicity” lay in the range of 100 to 170 mg/kg.

For the compound `CCc1ccc(C(=O)C(C)CN2CCCCC2)cc1` (centres unmarked) [Eperisone hydrochloride, eperisone hydrochloride, reference compound], the inhibition in vivo at 3 mg/kg in data set [2] is 52%; in data set [1] (setting [7]), 50%. The ED50 in data set [4] (setting [6]) is 30 mg/kg. Besides, the “Time required until disappearance” value in data set [5] (Dose 2 mg/kg) is 2.4 ± 1.2 min; in data set [5] (Dose 4 mg/kg) it was 5.8 ± 2.1 min. For the same compound, in data set [3], the ED50 at 20 min was 33 mg/kg. Further, in the data set “Acute toxicity”, the LD50 at 24 h was in the range of 100 to 170 mg/kg.

As for `CC(CN1CCCCC1)C(=O)c1cc(-c2ccccc2)no1.Cl` (centres unmarked) [Example 1, 5-(2-methyl-3-piperidinopropionyl)-3-phenylisoxazole Hydrochloride], the inhibition in vivo at 3 mg/kg in data set [2] was 40%. In addition, the ED50 in data set [4] (setting [6]) came to 17 mg/kg. The ED50 at 20 min in data set [3] amounted to 54 mg/kg. Moreover, the LD50 at 24 h in the data set “Acute toxicity” lay in the range of 170 to 300 mg/kg.

For `CCC(CN1CCCC1)C(=O)c1cc(-c2ccc(C)o2)no1` (centres unmarked) [Example 38], in data set [1] (setting [7]), the inhibition in vivo at 3 mg/kg came to 38%.

On to `Cc1ccc(-c2cc(C(=O)C(C)CN3CCCC3)on2)o1` (centres unmarked) [Example 20, hydrochloride], for which the values for the inhibition in vivo at 3 mg/kg in data set [2] and in data set [1] (setting [7]) were 49% and 54%, respectively. For the same compound, the ED50 at 20 min in data set [3] was found to be 49 mg/kg. Also, the LD50 at 24 h in “Acute toxicity” lay within 170 to 300 mg/kg.

Consider `CCC(CN1CCCCC1)C(=O)c1cc(-c2ccccc2)no1` (centres unmarked) [Example 29], for which the inhibition in vivo at 3 mg/kg in data set [2] was 53%; in data set [1] (setting [7]), 70%. Further, in data set [4] (setting [6]), the ED50 came out at 3 mg/kg. For the same compound, the “Time required until disappearance” value is given as 4.9 ± 1.2 min in data set [5] (Dose 2 mg/kg) and 8.6 ± 2.1 min in data set [5] (Dose 4 mg/kg). Also, the ED50 at 20 min in data set [3] came out at 38 mg/kg. Besides, in the data set “Acute toxicity”, the LD50 at 24 h lay in the range of 300 to 500 mg/kg.

On to `CC(C)C(CN1CCCC1)C(=O)c1cc(-c2ccccc2)no1` (centres unmarked) [Example 46, 3-Phenyl-5-{2-(1-pyrrolidinylmethyl)-3-methylbutyryl}-isoxazole hydrochloride], for which the inhibition in vivo at 3 mg/kg in data set [2] was 51%; in data set [1] (setting [7]) it was 66%.

`CC(CN1CCCCC1)C(=O)c1cc(C(=O)c2ccccc2)no1.Cl` (centres unmarked) [Example 22, 3-benzoyl-5-(2-methyl-3-piperidinopropionyl)isoxazole hydrochloride] registered an inhibition in vivo at 3 mg/kg in data set [2] of 41%. Also, the ED50 in data set [4] (setting [6]) turned out to be 18 mg/kg. Also, the ED50 at 20 min in data set [3] came to 43 mg/kg.

In the case of `CC(CN1CCCC1)C(=O)c1snc2ccccc12` (centres unmarked) [Example 61], the inhibition in vivo at 3 mg/kg in data set [1] (setting [7]) worked out at 85%. Further, the ED50 in data set [4] (setting [6]) was found to be 11 mg/kg. In addition, in data set [3], the ED50 at 20 min came out at 37 mg/kg.

For the compound `CCC(CN1CCCC1)C(=O)c1snc2ccccc12` (centres unmarked) [Example 62], the inhibition in vivo at 3 mg/kg in data set [1] turned out to be 90%. For the same compound, in data set [4], the ED50 was determined as 23 mg/kg. For the same compound, the ED50 at 20 min in data set [3] was 50 mg/kg.

In the case of `CCCC(CN1CCCC1)C(=O)c1cc(-c2ccccc2)no1` (centres unmarked) [Example 47], the inhibition in vivo at 3 mg/kg in data set [1] came to 45%.

For `Cc1onc(-c2ccccc2)c1C(=O)C(C)CN1CCCCC1.Cl` (centres unmarked) [Example 68, 3-Phenyl-5-methyl-4-(2-methyl-3-piperidinopropionyl)isoxazole hydrochloride], the inhibition in vivo at 3 mg/kg in data set [1] (setting [7]) is 56%. For the same compound, the ED50 in data set [4] (setting [6]) worked out at 17 mg/kg.

`COc1cccc(-c2cc(C(=O)C(C)CN3CCCC3)on2)c1` (centres unmarked) [Example 8] displayed an inhibition in vivo at 3 mg/kg in data set [2] of 38%.

In the case of `CCC(CN1CCCC1)C(=O)c1cc(-c2ccccc2)no1` (centres unmarked) [Example 28, 3-Phenyl-5-{2-(1-pyrrolidinylmethyl)butyryl} isoxazole hydrochloride], the figures for the inhibition in vivo at 3 mg/kg in data set [2] and in data set [1] (setting [7]) were 62% and 79%, respectively. The ED50 in data set [4] (setting [6]) was 5 mg/kg. The “Time required until disappearance” value in data set [5] (Dose 2 mg/kg) was 5.6 ± 1.2 min; in data set [5] (Dose 4 mg/kg), 10.1 ± 2.1 min. Also, the ED50 at 20 min in data set [3] was 44 mg/kg. Moreover, in “Acute toxicity”, the LD50 at 24 h lay within 100 to 170 mg/kg.
